Several values for one entry are separate records, joined by “and”; a condition that tells them apart may be missing. Identical values can stand only once.
How the values were obtained:
[1] = Pharmacokinetics after single oral administration to rabbits; format: in vivo, rabbit; conditions: single oral 50 mg/kg
Experimental: Experiments were performed at ChemPartner, Shanghai, China and approved by Institutional Ethics Committee (IEC) of ChemPartner. Male Wistar 10–12 weeks old rats with body weights of 185–220 g and male New Zealand rabbits with body weights of 2.0–2.3 kg were purchased from Shanghai SLAC Laboratory Animal Co., Ltd. MT-SYK-03 was administered to the three groups of rats (six rats per group) via oral gavage at 10 mL/kg concentration, and in rabbits 5 mL/kg concentration. Blood samples were kept on ice and centrifuged (2000 g, 4 ℃, 5 min) within 15 min post sampling.

RET = molecular target: T1, RET (Homo sapiens, UniProt P07949); experiment: Kinase selectivity profile assay; format: biochemical
T1 construct: purchased Reaction Biology Corporation (Malvern, PA, USA)
Excerpt: (§1) Kinase activity data was expressed as the percent remaining kinase activity in test samples compared to vehicle (dimethyl sulfoxide) reactions based on the radioactivity of reaction products (see Table S2). Experiment was replicated twice.

FYN = molecular target: T2, FYN (Homo sapiens, UniProt P06241); experiment: Kinase selectivity profile assay; format: biochemical
T2 construct: purchased Reaction Biology Corporation (assay service)
Excerpt: as §1

EPHA2 = molecular target: T3, EPHA2 (Homo sapiens, UniProt P29317); experiment: Kinase selectivity profile assay; format: biochemical; conditions: 500 nM, relative to DMSO
T3 construct: purchased Reaction Biology Corporation
Excerpt: as §1

LCK = molecular target: T4, LCK (Homo sapiens, UniProt P06239); experiment: Kinase selectivity profile assay; format: biochemical
T4 construct: purchased Reaction Biology Corporation (assay service)
Excerpt: as §1

MARK3 = molecular target: T5, MARK3 (Homo sapiens, UniProt P27448); experiment: Kinase selectivity profile assay; format: biochemical; conditions: 500 nM; relative to DMSO; read-out: Residual enzymatic activity
T5 construct: purchased Reaction Biology Corporation
Excerpt: as §1

MARK2/PAR-1Ba = molecular target: T6, MARK2/PAR-1Ba (Homo sapiens, UniProt Q7KZI7); experiment: Kinase selectivity profile assay; format: biochemical; conditions: 500 nM; relative to DMSO; read-out: Residual enzymatic activity
T6 construct: purchased Reaction Biology Corporation
Excerpt: as §1

Aurora A = molecular target: T7, Aurora A (Homo sapiens, UniProt O14965); experiment: Kinase selectivity profile assay; format: biochemical; conditions: 500 nM; relative to DMSO; read-out: Residual enzymatic activity
T7 construct: purchased Reaction Biology Corporation
Excerpt: as §1

ITK = molecular target: T8, ITK (Homo sapiens, UniProt Q08881); experiment: Kinase selectivity profile assay; format: biochemical; conditions: 500 nM; relative to DMSO; read-out: Residual enzymatic activity
T8 construct: purchased Reaction Biology Corporation
Excerpt: as §1

NEK11 = molecular target: T9, NEK11 (Homo sapiens, UniProt Q8NG66); experiment: Kinase selectivity profile assay; format: biochemical
T9 construct: purchased Reaction Biology Corporation (Malvern, PA, USA)
Excerpt: as §1

MLK3/MAP3K11 = molecular target: T10, MLK3/MAP3K11 (Homo sapiens, UniProt Q16584); experiment: Kinase selectivity profile assay; format: biochemical
T10 construct: purchased Reaction Biology Corporation (Malvern, PA, USA)
Excerpt: as §1

JNK1 = molecular target: T11, JNK1 (Homo sapiens, UniProt P45983); experiment: Kinase selectivity profile assay; format: biochemical; conditions: 500 nM; relative to DMSO; read-out: Residual enzymatic activity
T11 construct: purchased Reaction Biology Corporation
Excerpt: as §1

CAMK1a = molecular target: T12, CAMK1a (Homo sapiens, UniProt Q14012); experiment: Kinase selectivity profile assay; format: biochemical; conditions: 500 nM; relative to DMSO; read-out: Residual enzymatic activity
T12 construct: purchased Reaction Biology Corporation
Excerpt: as §1

EGFR = molecular target: T13, EGFR (Homo sapiens, UniProt P00533); experiment: Kinase selectivity profile assay; format: biochemical; conditions: 500 nM, relative to DMSO
T13 construct: purchased Reaction Biology Corporation
Excerpt: as §1

PKG2/PRKG2 = molecular target: T14, PKG2/PRKG2 (Homo sapiens, UniProt Q13237); experiment: Kinase selectivity profile assay; format: biochemical; conditions: 500 nM; relative to DMSO; read-out: Residual enzymatic activity
T14 construct: purchased Reaction Biology Corporation
Excerpt: as §1

TLK2 = molecular target: T15, TLK2 (Homo sapiens, UniProt Q86UE8); experiment: Kinase selectivity profile assay; format: biochemical; conditions: 500 nM; relative to DMSO; read-out: Residual enzymatic activity
T15 construct: purchased Reaction Biology Corporation
Excerpt: as §1

FES/FPS = molecular target: T16, FES/FPS (Homo sapiens, UniProt P07332); experiment: Kinase selectivity profile assay; format: biochemical; conditions: 500 nM; relative to DMSO; read-out: Residual enzymatic activity
T16 construct: purchased Reaction Biology Corporation
Excerpt: as §1

CDK9/cyclin K = molecular target: T17, CDK9/cyclin K (Homo sapiens, UniProt P50750); experiment: Kinase selectivity profile assay; format: biochemical; conditions: 500 nM; relative to DMSO; read-out: Residual enzymatic activity
T17 construct: purchased Reaction Biology Corporation
Excerpt: as §1

NEK2 = molecular target: T18, NEK2 (Homo sapiens, UniProt P51955); experiment: Kinase selectivity profile assay; format: biochemical; conditions: 500 nM; relative to DMSO; read-out: Residual enzymatic activity
T18 construct: purchased Reaction Biology Corporation
Excerpt: as §1

CAMK1d = molecular target: T19, CAMK1d (Homo sapiens, UniProt Q8IU85); experiment: Kinase selectivity profile assay; format: biochemical; conditions: 500 nM; relative to DMSO; read-out: Residual enzymatic activity
T19 construct: purchased Reaction Biology Corporation
Excerpt: as §1

JAK2 = molecular target: T20, JAK2 (Homo sapiens, UniProt O60674); experiment: Kinase selectivity profile assay; format: biochemical
T20 construct: purchased Reaction Biology Corporation (assay service)
Excerpt: as §1

PAK3 = molecular target: T21, PAK3 (Homo sapiens, UniProt O75914); experiment: Kinase selectivity profile assay; format: biochemical; conditions: 500 nM; relative to DMSO; read-out: Residual enzymatic activity
T21 construct: purchased Reaction Biology Corporation
Excerpt: as §1

KDR/VEGFR2 = molecular target: T22, KDR/VEGFR2 (Homo sapiens, UniProt P35968); experiment: Kinase selectivity profile assay; format: biochemical; conditions: 500 nM, relative to DMSO
T22 construct: purchased Reaction Biology Corporation
Excerpt: as §1

ZIPK/DAPK3 = molecular target: T23, ZIPK/DAPK3 (Homo sapiens, UniProt O43293); experiment: Kinase selectivity profile assay; format: biochemical; conditions: 500 nM; relative to DMSO; read-out: Residual enzymatic activity
T23 construct: purchased Reaction Biology Corporation
Excerpt: as §1

ROS/ROS1 = molecular target: T24, ROS/ROS1 (Homo sapiens, UniProt P08922); experiment: Kinase selectivity profile assay; format: biochemical
T24 construct: purchased Reaction Biology Corporation (Malvern, PA, USA)
Excerpt: as §1

[2] = test system: B cells in human whole blood; experiment: B-cell activation in human whole blood; format: cell-based; conditions: anti-IgD stimulation, 16 h, read-out: IC50, BCR-dependent (anti-IgD) activation of B cells
Experimental: The whole blood assay was performed at N. N. Blokhin National Medical Research Center of Oncology (NMRCO), Russia and approved by NMRCO ethics committee. Informed consent was obtained from all subjects. Red blood cells were lysed by incubation with NH4Cl buffer (0.8% NH4Cl and 0.1% EDTA in distilled water) for 5 min at 37 °C and were precipitated by centrifugation (1500 rpm). The precipitates were resuspended in RPMI-1640 with 10% human serum and 2 mM L-glutamine, after that the cells were again precipitated by analogous centrifugation and resuspended in RPMI-1640. […] Blood was then stained directly with PE-conjugated anti-CD69 (dilution 1:10) and APC-conjugated anti-CD19 (dilution 1:20) antibodies for 20 min at 4 °C. After that cells were precipitated by centrifugation (1500 rpm, 4 °C) and washed twice with phosphate-buffered saline (PBS). The cells were resuspended in PBS containing 1% BSA and subjected to flow cytometry on BD FACS Canto II (BD Biosciences, USA). The number of active cells was estimated as a ratio of CD69-positive cells bearing a marker of CD19 cells, or as a mean fluorescence intensity (MFI) of CD69 + cells after gating on the CD19-positive cells. For dose–response curve see Fig. S2.

[3] = male, New Zealand, rabbit, plasma
[4] = 500 nM, relative to DMSO, read-out: Residual enzymatic activity
[5] = 10-dose mode, threefold serial dilution from 10 μM
[6] = read-out: Residual enzymatic activity

T4 sequence (P06239 whole entry): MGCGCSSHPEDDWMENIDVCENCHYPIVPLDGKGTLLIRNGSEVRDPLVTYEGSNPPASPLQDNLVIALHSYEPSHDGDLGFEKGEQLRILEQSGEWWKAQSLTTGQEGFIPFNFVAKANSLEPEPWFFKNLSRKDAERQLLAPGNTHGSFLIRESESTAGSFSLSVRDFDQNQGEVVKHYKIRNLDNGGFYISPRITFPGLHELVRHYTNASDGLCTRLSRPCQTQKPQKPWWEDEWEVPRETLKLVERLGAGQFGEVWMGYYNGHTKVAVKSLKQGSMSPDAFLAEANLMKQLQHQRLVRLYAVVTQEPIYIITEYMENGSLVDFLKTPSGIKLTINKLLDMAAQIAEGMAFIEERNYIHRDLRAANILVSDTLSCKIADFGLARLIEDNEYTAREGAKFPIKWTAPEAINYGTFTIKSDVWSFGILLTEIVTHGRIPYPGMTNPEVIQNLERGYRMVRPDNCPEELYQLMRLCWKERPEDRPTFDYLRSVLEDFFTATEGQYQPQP
T3 sequence (P29317 24-976): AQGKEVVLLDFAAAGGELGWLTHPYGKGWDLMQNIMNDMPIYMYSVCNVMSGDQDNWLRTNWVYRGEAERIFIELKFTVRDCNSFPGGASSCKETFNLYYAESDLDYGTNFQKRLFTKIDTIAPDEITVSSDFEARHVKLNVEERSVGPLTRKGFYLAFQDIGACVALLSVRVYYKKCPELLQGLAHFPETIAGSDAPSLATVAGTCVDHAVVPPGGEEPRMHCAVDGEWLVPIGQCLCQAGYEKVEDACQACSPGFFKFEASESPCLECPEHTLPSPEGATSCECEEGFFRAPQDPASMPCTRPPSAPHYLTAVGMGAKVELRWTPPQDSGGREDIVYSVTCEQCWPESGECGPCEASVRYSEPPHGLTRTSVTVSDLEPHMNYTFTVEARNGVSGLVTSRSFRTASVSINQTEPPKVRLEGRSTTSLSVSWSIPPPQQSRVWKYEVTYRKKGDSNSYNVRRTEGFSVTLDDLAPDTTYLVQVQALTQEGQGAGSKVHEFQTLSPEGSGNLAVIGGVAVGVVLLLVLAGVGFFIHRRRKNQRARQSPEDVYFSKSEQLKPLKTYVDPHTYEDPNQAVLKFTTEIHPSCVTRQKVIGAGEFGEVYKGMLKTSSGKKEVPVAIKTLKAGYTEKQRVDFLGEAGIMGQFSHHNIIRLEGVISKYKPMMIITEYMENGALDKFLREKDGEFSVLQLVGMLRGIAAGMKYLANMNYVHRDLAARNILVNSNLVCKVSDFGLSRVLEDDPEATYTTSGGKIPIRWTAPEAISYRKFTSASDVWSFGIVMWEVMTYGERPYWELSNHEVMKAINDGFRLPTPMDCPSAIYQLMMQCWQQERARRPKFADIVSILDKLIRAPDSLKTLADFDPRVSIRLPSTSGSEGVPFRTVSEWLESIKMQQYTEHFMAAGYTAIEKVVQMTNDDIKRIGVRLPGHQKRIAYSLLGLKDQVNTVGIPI
T10 sequence (Q16584 whole entry): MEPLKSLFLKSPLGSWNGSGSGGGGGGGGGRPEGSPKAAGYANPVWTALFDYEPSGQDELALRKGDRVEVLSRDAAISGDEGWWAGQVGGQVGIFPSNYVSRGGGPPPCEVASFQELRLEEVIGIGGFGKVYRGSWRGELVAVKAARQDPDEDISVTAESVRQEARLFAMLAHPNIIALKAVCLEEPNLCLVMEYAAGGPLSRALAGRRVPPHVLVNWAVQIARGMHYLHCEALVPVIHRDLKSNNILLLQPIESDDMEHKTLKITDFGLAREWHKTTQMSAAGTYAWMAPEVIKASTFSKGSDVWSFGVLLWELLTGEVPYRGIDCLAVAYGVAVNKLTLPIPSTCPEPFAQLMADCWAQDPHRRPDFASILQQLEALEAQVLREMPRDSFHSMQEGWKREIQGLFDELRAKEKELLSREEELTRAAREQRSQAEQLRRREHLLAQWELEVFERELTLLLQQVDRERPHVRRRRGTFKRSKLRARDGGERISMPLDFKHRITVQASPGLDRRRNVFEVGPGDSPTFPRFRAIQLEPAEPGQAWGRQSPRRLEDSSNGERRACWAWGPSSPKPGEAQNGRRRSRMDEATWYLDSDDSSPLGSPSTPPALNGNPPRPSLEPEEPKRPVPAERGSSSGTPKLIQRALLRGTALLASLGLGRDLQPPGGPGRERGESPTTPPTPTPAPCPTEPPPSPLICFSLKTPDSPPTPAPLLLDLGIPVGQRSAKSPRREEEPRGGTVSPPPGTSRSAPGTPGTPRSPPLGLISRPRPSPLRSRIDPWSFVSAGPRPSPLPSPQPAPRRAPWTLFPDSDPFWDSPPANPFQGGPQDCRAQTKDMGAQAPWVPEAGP
T20 sequence (O60674 whole entry): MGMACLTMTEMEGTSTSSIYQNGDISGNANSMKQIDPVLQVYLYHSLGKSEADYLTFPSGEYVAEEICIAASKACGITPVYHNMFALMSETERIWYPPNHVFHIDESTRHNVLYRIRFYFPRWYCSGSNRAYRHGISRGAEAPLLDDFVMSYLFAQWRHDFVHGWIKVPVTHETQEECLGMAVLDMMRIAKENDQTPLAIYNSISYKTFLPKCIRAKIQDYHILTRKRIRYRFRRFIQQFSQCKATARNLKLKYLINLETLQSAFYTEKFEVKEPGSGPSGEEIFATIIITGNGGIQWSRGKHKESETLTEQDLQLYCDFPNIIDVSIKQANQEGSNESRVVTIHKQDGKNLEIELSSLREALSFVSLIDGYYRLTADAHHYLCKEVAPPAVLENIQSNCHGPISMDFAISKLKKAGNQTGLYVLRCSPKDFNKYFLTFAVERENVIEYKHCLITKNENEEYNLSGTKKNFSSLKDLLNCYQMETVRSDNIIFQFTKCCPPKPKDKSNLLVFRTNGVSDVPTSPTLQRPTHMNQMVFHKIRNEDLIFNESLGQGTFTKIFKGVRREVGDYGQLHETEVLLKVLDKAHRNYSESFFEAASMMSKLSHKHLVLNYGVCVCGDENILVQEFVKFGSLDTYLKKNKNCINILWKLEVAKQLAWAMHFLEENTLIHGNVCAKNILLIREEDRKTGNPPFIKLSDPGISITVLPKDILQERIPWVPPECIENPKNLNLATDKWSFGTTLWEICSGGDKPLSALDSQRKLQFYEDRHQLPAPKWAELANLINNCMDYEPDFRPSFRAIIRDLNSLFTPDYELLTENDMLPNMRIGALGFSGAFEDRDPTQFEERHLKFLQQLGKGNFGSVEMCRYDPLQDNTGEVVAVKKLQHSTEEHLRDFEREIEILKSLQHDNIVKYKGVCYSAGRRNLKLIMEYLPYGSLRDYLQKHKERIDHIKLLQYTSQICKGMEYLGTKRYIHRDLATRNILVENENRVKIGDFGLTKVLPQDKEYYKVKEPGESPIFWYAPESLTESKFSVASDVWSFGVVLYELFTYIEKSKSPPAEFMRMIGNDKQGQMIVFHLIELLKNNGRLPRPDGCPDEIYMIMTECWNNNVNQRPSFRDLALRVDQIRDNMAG
T9 sequence (Q8NG66 whole entry): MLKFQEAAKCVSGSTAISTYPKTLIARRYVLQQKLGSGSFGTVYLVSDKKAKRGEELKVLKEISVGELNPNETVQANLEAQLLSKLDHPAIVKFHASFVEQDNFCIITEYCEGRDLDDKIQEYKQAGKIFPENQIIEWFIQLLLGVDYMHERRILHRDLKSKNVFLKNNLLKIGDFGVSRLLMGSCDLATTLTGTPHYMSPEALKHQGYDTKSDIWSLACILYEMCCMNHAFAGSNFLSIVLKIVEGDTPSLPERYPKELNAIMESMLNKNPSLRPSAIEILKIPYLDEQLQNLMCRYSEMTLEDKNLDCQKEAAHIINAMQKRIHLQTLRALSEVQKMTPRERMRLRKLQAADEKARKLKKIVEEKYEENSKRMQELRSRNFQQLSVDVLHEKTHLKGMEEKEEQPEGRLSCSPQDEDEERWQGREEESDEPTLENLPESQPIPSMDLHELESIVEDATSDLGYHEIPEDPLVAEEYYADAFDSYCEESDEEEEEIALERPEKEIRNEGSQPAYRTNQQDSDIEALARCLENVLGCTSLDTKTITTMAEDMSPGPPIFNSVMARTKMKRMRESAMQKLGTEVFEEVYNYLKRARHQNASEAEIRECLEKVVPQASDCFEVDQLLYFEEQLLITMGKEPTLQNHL
T2 sequence (P06241 whole entry): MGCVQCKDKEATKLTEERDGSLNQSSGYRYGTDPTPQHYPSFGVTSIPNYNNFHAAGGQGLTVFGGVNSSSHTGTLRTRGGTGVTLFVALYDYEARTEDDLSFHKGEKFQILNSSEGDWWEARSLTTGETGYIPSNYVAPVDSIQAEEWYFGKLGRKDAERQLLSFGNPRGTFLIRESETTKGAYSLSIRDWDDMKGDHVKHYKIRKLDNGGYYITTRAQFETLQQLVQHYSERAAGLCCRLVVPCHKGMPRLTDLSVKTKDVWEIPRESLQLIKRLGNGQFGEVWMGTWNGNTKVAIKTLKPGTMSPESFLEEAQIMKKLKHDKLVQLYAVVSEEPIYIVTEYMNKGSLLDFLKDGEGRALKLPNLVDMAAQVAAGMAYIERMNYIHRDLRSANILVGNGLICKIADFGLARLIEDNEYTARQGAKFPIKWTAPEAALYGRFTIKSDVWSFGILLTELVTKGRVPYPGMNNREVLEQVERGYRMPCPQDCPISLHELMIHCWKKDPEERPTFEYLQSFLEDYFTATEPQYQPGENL
T7 sequence (O14965 whole entry): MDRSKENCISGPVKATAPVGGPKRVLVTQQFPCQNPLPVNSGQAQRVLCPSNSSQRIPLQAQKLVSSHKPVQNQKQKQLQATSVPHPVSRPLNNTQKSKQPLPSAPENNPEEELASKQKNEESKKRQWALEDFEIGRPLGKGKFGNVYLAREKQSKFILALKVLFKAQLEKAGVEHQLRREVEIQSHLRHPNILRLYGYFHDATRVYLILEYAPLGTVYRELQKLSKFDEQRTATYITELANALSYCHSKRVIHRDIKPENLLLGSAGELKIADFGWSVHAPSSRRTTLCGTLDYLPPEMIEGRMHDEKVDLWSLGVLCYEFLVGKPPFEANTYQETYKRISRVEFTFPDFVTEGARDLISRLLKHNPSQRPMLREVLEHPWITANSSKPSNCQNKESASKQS

COc1cc(Nc2ncnc(Nc3cc4c(cn3)NC(=O)C(C)(C)O4)n2)cc(OC)c1OC [MT-SYK-03]
AUC(0-inf) [1, 3]: 121 µg·h/mL
Cmax [1, 3]: 8570 ng/mL and 14.1 µM
Tmax [1, 3]: 6 ± 2.19 h
k el [1, 3]: 2.67e-05 s⁻¹
AUC ([1]; male, New Zealand, rabbit, plasma, read-out: AUC48): 119 µg·h/mL
MRT24 [1]: 9.2 ± 0.66 h
τ1/2 [1]: 7.41 ± 1.32 h
remaining activity at 0.5 µM (RET; [4]): 23%
IC50 (RET; [5]): 0.0135 µM
remaining activity at 0.5 µM (FYN; [4]): 25.2%
IC50 (FYN; [5]): 0.02 µM
Residual enzymatic activity (EPHA2): 56.3%
remaining activity at 0.5 µM (EPHA2; [6]): > 54%
remaining activity at 0.5 µM (LCK; [4]): 12%
IC50 (LCK; [5]): 0.02 µM and 0.0201 µM
remaining activity at 0.5 µM (MARK3): 97.1%
remaining activity at 0.5 µM (MARK2/PAR-1Ba): 97.9%
remaining activity at 0.5 µM (Aurora A): 74.4%
remaining activity at 0.5 µM (ITK): 102%
remaining activity at 0.5 µM (NEK11; [4]): 35.9%
IC50 (NEK11; [5]): 0.0261 µM
remaining activity at 0.5 µM (MLK3/MAP3K11; [4]): 31.4%
IC50 (MLK3/MAP3K11; [5]): 0.0256 µM
remaining activity at 0.5 µM (JNK1): 94.3%
remaining activity at 0.5 µM (CAMK1a): 100%
Residual enzymatic activity (EGFR): 59.6%
remaining activity at 0.5 µM (EGFR; [6]): > 54%
remaining activity at 0.5 µM (PKG2/PRKG2): 94.2%
remaining activity at 0.5 µM (TLK2): 95.6%
remaining activity at 0.5 µM (FES/FPS): 92.2%
remaining activity at 0.5 µM (CDK9/cyclin K): 95.7%
remaining activity at 0.5 µM (NEK2): 86%
remaining activity at 0.5 µM (CAMK1d): 108%
remaining activity at 0.5 µM (JAK2; [4]): 27%
IC50 (JAK2; [5]): 0.0672 µM
remaining activity at 0.5 µM (PAK3): 87%
Residual enzymatic activity (KDR/VEGFR2): did not inhibit
remaining activity at 0.5 µM (KDR/VEGFR2; [6]): 88.6%
remaining activity at 0.5 µM (ZIPK/DAPK3): 98.4%
remaining activity at 0.5 µM (ROS/ROS1; [4]): 25.9%
IC50 (ROS/ROS1; [5]): 0.0347 µM
IC50 [2]: 0.55 µM

Reference: PMC8632988, “Inhibition of SYK and cSrc kinases can protect bone and cartilage in preclinical models of osteoarthritis and rheumatoid arthritis” (Scientific Reports, 2021)
